Columns and labels:
[1] = tested on: MATIN; assay: Post-emergence herbicidal action against MATIN; format: in vivo, Matricaria inodora
Procedure, shortened: (§1)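 Visual % rating (0% = as untreated, 100% = dead) ~3 wk after spraying one-leaf-stage plants grown in sandy loam; WP/EC in water at 600–800 l/ha, 0.2% wetting agent.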

[2] = tested on: AMARE; assay: Pre-emergence herbicidal action against AMARE; format: in vivo, Amaranthus retroflexus
Procedure, shortened: (§2)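 Sandy loam pots, seeds covered with soil, then surface-treated with WP or EC formulations at 600–800 l/ha water plus 0.2% wetting agent. Greenhouse, 3 weeks. Percent damage vs untreated controls.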

[3] = tested on: AVEFA; assay: Post-emergence herbicidal action against AVEFA; format: in vivo, Avena fatua; settings: 20 g/ha, visual assessment about 3 weeks after treatment, 100% = plants have died, 0% = like control plants
Experimental: Seeds of monocotyledonous and dicotyledonous weed and crop plants are laid out in sandy loam soil in wood-fiber pots, covered with soil and cultivated in a greenhouse under good growth conditions. 2 to 3 weeks after sowing, the test plants are treated at the one-leaf stage. The compounds of the invention, formulated in the form of wettable powders (WP) or as emulsion concentrates (EC), are then sprayed onto the green parts of the plants in the form of an aqueous suspension or emulsion at a water application rate equivalent to 600 to 800 l/ha, with addition of 0.2% wetting agent. After the test plants have been left to stand in the greenhouse under optimal growth conditions for about 3 weeks, the action of the preparations is assessed visually in comparison to untreated controls (herbicidal action in percent (%): 100% activity=the plants have died, 0% activity=like control plants). […] The tables below illustrate, in an illustrative manner, the post-emergence herbicidal action of the compounds of the invention, the herbicidal activity being stated in percent.

[4] = tested on: MATIN; assay: Pre-emergence herbicidal action against MATIN; format: in vivo, Matricaria inodora
Procedure, shortened: as §2

[5] = tested on: VERPE; assay: Post-emergence herbicidal action against VERPE; format: in vivo, Veronica persica
Procedure, shortened: as §1

[6] = tested on: ALOMY; assay: Post-emergence herbicidal action against ALOMY; format: in vivo, Alopecurus myosuroides; settings: dosage 20 g/ha, visual assessment about 3 weeks after treatment vs untreated controls
Procedure, shortened: as §1

[7] = tested on: ABUTH; assay: Pre-emergence herbicidal action against ABUTH; format: in vivo, Abutilon theophrasti; settings: for Pre-emergence action against ABUTH (herbicidal activity): 80 g/ha, scored visually after 3 weeks vs untreated controls (100% = plants have died, 0% = like control plants); for Pre-emergence action against ABUTH (herbicidal activity in percent): dosage 20 g/ha, scored visually after 3 weeks vs untreated controls, 100% = plants have died, 0% = like control plants
Procedure, shortened: as §2

[8] = tested on: VIOTR; assay: Pre-emergence herbicidal action against VIOTR; format: in vivo, Viola tricolor
Procedure, shortened: as §2

[9] = tested on: SETVI; assay: Post-emergence herbicidal action against SETVI; format: in vivo, Setaria viridis
Procedure, shortened: as §1

[10] = tested on: ECHCG; assay: Post-emergence herbicidal action against ECHCG; format: in vivo, Echinochloa crus-galli; settings: dosage 20 g/ha
Procedure, shortened: as §1

[11] = tested on: AMARE; assay: Post-emergence herbicidal action against AMARE; format: in vivo, Amaranthus retroflexus; settings: 20 g/ha, visual assessment about 3 weeks after treatment, 100% = plants have died, 0% = like control plants
Procedure, shortened: as §1

[12] = tested on: VERPE; assay: Pre-emergence herbicidal action against VERPE; format: in vivo, Veronica persica
Procedure, shortened: as §2

[13] = tested on: ALOMY; assay: Pre-emergence herbicidal action against ALOMY; format: in vivo, Alopecurus myosuroides; settings: 80 g/ha, pre-emergence, scored visually after 3 weeks vs untreated controls (100% = plants have died, 0% = like control plants)
Procedure, shortened: as §2

[14] = tested on: PHBPU; assay: Post-emergence herbicidal action against PHBPU; format: in vivo, Pharbitis purpurea
Procedure, shortened: as §1

[15] = tested on: AVEFA; assay: Pre-emergence herbicidal action against AVEFA; format: in vivo, Avena fatua; settings: 80 g/ha, pre-emergence
Procedure, shortened: as §2

[16] = tested on: SETVI; assay: Pre-emergence herbicidal action against SETVI; format: in vivo, Setaria viridis
Procedure, shortened: as §2

[17] = tested on: VIOTR; assay: Post-emergence herbicidal action against VIOTR; format: in vivo, Viola tricolor
Procedure, shortened: as §1

[18] = tested on: ECHCG; assay: Pre-emergence herbicidal action against ECHCG; format: in vivo, Echinochloa crus-galli; settings: 80 g/ha
Procedure, shortened: as §2

[19] = tested on: DIGSA; assay: Pre-emergence herbicidal action against DIGSA; format: in vivo, Digitaria sanguinalis
Procedure, shortened: as §2

[20] = tested on: PHBPU; assay: Pre-emergence herbicidal action against PHBPU; format: in vivo, Pharbitis purpurea; settings: dosage 80 g/ha
Procedure, shortened: as §2

[21] = tested on: ABUTH; assay: Post-emergence herbicidal action against ABUTH; format: in vivo, Abutilon theophrasti; settings: visual assessment about 3 weeks after treatment vs untreated controls
Procedure, shortened: as §1

[22] = 20 g/ha, scored visually after 3 weeks vs untreated controls, 100% = plants have died, 0% = like control plants
[23] = 80 g/ha, scored visually after 3 weeks vs untreated controls (100% = plants have died, 0% = like control plants)

| Compound | Post-emergence action against MATIN in % ([1]; dosage 20 g/ha) | Pre-emergence action against AMARE in % [2, 22] | Pre-emergence action against AMARE in % [2, 23] | Post-emergence action at 20 g/ha against AVEFA in % [3] | Pre-emergence action against MATIN in % ([4]; dosage 20 g/ha) | Pre-emergence action against MATIN in % ([4]; dosage 80 g/ha) | Post-emergence action against VERPE in % ([5]; 20 g/ha) | Post-emergence action against ALOMY in % [6] | Pre-emergence action against ABUTH (herbicidal activity) [7] | Pre-emergence action against ABUTH (herbicidal activity in percent) [7] | Pre-emergence action against VIOTR in % ([8]; dosage 80 g/ha) | Post-emergence action against SETVI in % ([9]; dosage 5 g/ha) | Post-emergence action against SETVI in % ([9]; dosage 20 g/ha) | Post-emergence action against ECHCG in % [10] | Post-emergence action at 20 g/ha against AMARE in % [11] | Pre-emergence action against ALOMY (herbicidal activity) [13] | Post-emergence action against PHBPU in % ([14]; dosage 20 g/ha) | Pre-emergence action against AVEFA in % [15] | Pre-emergence action against SETVI in % ([16]; dosage 80 g/ha) | Pre-emergence action against ECHCG in % [18] | also measured |
| --- | --- | --- | --- | --- | --- | --- | --- | --- | --- | --- | --- | --- | --- | --- | --- | --- | --- | --- | --- | --- | --- |
| CSc1c(C(=O)Nc2nnnn2C)ccc(C(F)(F)F)c1C(=O)NCC1CC1 [Example 1-84] | 90% | 100% | 100% | 80% | 100% | 100% | 90% | 100% | 100% | 100% | 100% | 100% | 100% | 100% | 100% | 100% | 90% | 100% | 100% | 100% | Pre-emergence action against VERPE in % ([12]; dosage 20 g/ha): 80%; Pre-emergence action against VERPE in % ([12]; dosage 80 g/ha): 100%; Post-emergence action against PHBPU in % ([14]; dosage 5 g/ha): 90%; Post-emergence action against VIOTR in % ([17]; 5 g/ha): 100%; Post-emergence action against VIOTR in % ([17]; 20 g/ha): 100% |
| Cc1c(C(=O)Nc2nnnn2C)ccc(C(F)(F)F)c1C(=O)NCC(F)F [Example 1-30] | – | 100% | 100% | 80% | 100% | 100% | – | 80% | 100% | 100% | 100% | – | – | 80% | – | 80% | 80% | 100% | 100% | 80% | Pre-emergence action against DIGSA in % ([19]; dosage 20 g/ha): 100%; Pre-emergence action against DIGSA in % ([19]; dosage 80 g/ha): 100%; Pre-emergence action against PHBPU in % [20]: 100%; Pre-emergence action against VIOTR in % ([8]; dosage 20 g/ha): 100%; Post-emergence action against ABUTH in % ([21]; dosage 5 g/ha): 80%; Post-emergence action against ABUTH in % ([21]; dosage 20 g/ha): 80%; Pre-emergence action against SETVI in % ([16]; dosage 20 g/ha): 90% |
| CCn1nnnc1NC(=O)c1ccc(C(F)F)c(C(=O)NC2CC2)c1SC [Example 2-89] | 90% | 90% | 100% | 80% | 90% | 100% | 90% | 90% | 100% | 100% | 100% | 90% | 100% | 90% | 100% | 100% | 80% | 90% | 100% | 90% | Post-emergence action against MATIN in % ([1]; dosage 5 g/ha): 90%; Post-emergence action against VERPE in % ([5]; 5 g/ha): 80%; Pre-emergence action against VIOTR in % ([8]; dosage 20 g/ha): 90%; Post-emergence action against ABUTH in % ([21]; dosage 5 g/ha): 90%; Post-emergence action against ABUTH in % ([21]; dosage 20 g/ha): 90%; Pre-emergence action against VERPE in % ([12]; dosage 80 g/ha): 90%; Post-emergence action against VIOTR in % ([17]; 5 g/ha): 90%; Post-emergence action against VIOTR in % ([17]; 20 g/ha): 90% |

Reference: patent US12655116B2, “Substituted isophthalic acid diamides” (Bayer Aktiengesellschaft, priority 2020, dated 2026)
